Data on three compounds can be found in US6465526B1, “Natural mixture composed of higher primary aliphatic alcohols obtained from bee wax for the treatment of gastric and duodenal ulcers that also present antiinflamatory activity” (Laboratories Dalmer SA, priority 1994, dated 2002).

Assay type in all cases: in vivo, Sprague Dawley rats
The subject of series [1] is gastric ulcer induced by alcohol (60%) and indometacine (10 mg/kg). The experiment in a line: gastric ulcer induced by alcohol (60%) and indometacine (10 mg/kg). Here is the method:
The objective of the present work is to determine if the protective effect of […]. against ulcer is dependent of prostaglandins or not. Male Sprague Dawley rats, weighting 150 to 200 g, were adapted to laboratory conditions for 7 days with water and food ad libitum, up to 48 h previous to the experiment, where food is suppressed. The animals were randomly distributed in 4 experimental groups. […]. was administered intraperitoneally in a 2% Tween 20/water suspension, cimetidine was dissolved in hot water and indomethacine in 5% sodium bicarbonate. […] […] after the animals were injected by i.p. route indomethacine was administered at 10 mg/kg by subcutaneous route. Half an hour later, was administered 60% alcohol and, an hour later, the animals were sacrificed. The stomachs were extracted, opened by the bigger curvature and measured the size of the ulcer using a 3× enlargement. Results were expressed in […]. In all cases, the comparison between the treated groups and the control one was realized using the non parametric U de Mann Whitney test.

A further series relates to acid gastric secretion. Put plainly: gastric acidity in the model of pilorous ligatured. The note with it: 4 h after pilorous ligature. The protocol: The results obtained in last examples sugest an action over ulcer induced by acid compounds dependent or independent. With the objective of discard the inhibitory effect over the inhibition of the acid gastric secretion was determined the action of […]. over this acid gastric secretion in the pilorous ligature model. Female Sprague Dawley rats, weighing 150 to 200 g were adapted to laboratory conditions for 15 days with water and food ad libitum. The animals were randomly distributed in different experimental groups and food was deprived 48 h previous to the ligature. […]. was administered intraperitoneally in a 2% Tween 20/water suspension. Cimetidine was dissolved in hot water and administered by the same route as […]. […] Rats were anaesthetized with ether and an incision, in the abdominal region was done, stomachs were extracted and pilorous were ligatured with thread. […], after that, the compound was administered by i.p. route and 3 mL of saline solution were injected by subcutaneous route. Four h later, the animals were sacrificed, intact stomachs were extracted, tweezed by the esophagus. The gastric content was centrifuged at 3000 min^-1 for 10 min and, later on, the volume was measured. The acidity of the gastric juice was measured using 0.1 mol/L NaOH and phenolphtalein as indicator. The comparison between the treated groups and the control one was realized using the non parametric U de Mann Whitney test.

For another series, the system named is cotton granule. The experiment in a line: model of cotton granule. The settings on record: 3 mg/kg orally, 6 days. Here is the method: In order to corroborate the antiinflamatory effect of the […]. are used the pleuresy induced by carragenine and the granule by cotton models, those ones that constitute established models for the evaluation of antiinflamatory drugs. Granule by cotton: Male Sprague Dawley rats, weighing 200 to 250 g, were adapted to laboratory conditions in the same way as the last experiment. […]. was administered orally in a 2% Tween 20/water suspension, while administered orally in a 5% sodium bicarbonate. […] Rats were randomly distributed in 5 experimental groups: 1) control (vehicle); 2, 3, and 4) […]. at 25, 50 and 100 mg/kg respectively and 5) indomethacine at 3 mg/kg. Rats were, previously, anaesthetized with ether, doing an incision in the dorsal region. The […] cotton pellet of 50 mg was sub-cutaneously and applied with a local […] finally the injured is closed. […] The percent of inhibition was […] taking as reference the weight of the granule formed in the control group.

Series [2] relates to pleuresy induced by carragenine. The experiment in a line: pleuresy induced by carragenine. The note with it: for Exudate volume: 1 h before carragenine, 5 h. Here is the method:
Pleuresy by carragenine: Male Sprague Dawley rats were used (200-250 g) and adapted to laboratory conditions for 15 days with water and food ad libitum and were deprived of food 12 h previous to the experiment. M.H.A.A.B.W. was administered in a 10 mg/mL acacia gum/water suspension, as well as triacontanol, while indomethacine was dissolved in 5% sodium bicarbonate.
All the treatments were administered using gastric gavage one hour previous to the injection of carragenine. Rats were randomly distributed in the following experimental groups: 1) control (vehicle); 2, 3 and 4) M.H.A.A.B.W. at 25, 50 and 100 mg/kg respectively; 5) triacontanol at 50 mg/kg and 6) indomethacine at 10 mg/kg.
For the induction of the edema, rats were anesthesized with ether and 0.3 mL of carragenine in 1% of saline solution were injected in the pleural cavity. Five hours later, the animals were sacrificed and the exudate were colected, determining its volume. The percent of inhibition of the edema is calculated using the following formula:
Inhibition (%)=1−(VT)/(VC)×100
VT=volume of the edema of treated animals
VC=volume of the edema of control animals

Setting [3] is: 25 mg/kg i.p., indomethacine 10 mg/kg s.c. + 60% alcohol.

The structures appear in SMILES notation. Marks after values point to notes of the source that are not given here.

For the compound `CN/C(=N/CCSCc1nc[nH]c1C)NC#N` [Cimetidine, cimetidine], in series [1] (setting [3]), the Inhibition was found to be 71.2% and the Ulcer is listed as 14.6 +/− 5.64* mm. Also, in the series with acid gastric secretion (25 mg/kg i.p.), the Acidity was 0,080 +/− 0,009* meq H^+/mL and the Gastric juice volume is 5,87 +/− 0,63* mL. Besides, in the series on acid gastric secretion (50 mg/kg i.p.), the Acidity is recorded as 0,083 +/− 0,006** meq H^+/mL and the Gastric juice volume is listed as 5,83 +/− 0,38** mL.

In turn, `COc1ccc2c(c1)c(CC(=O)O)c(C)n2C(=O)c1ccc(Cl)cc1` [Indometacine, indomethacine] gave a Ulcer in series [1] (indometacine alone (10 mg/kg s.c.), no alcohol) of 0 mm. Moreover, in the series with cotton granule, the Inhibition is listed as 69.3% and the Weight of granule is listed as 79 + 0.02 ** mg. Moreover, in series [2] (10 mg/kg oral), the Inhibition is given as 59.6% and the Exudate volume is 0.50 ± 0.15 mL.

As for `CCCCCCCCCCCCCCCCCCCCCCCCCCCCCCO` [Triacontanol, 1-triacontanol], in series [2] (100 mg/kg oral (maximum dose assayed)), the Inhibition is 27.4%. The compound further yielded an Exudate volume in series [2] (100 mg/kg oral) of 0.96 ± 0.30 mL.
